Several values for one entry are separate records, joined by “and”; a condition that tells them apart may be missing. Identical values can stand only once. One block for each compound: values may come before it.
Experiments:
[1] = cited from earlier work
[2] = solubility in water of the thioureido-cyclodextrins; assay type: physicochemical

Structure (SMILES): CC(=O)O[C@@]12CO[C@@H]1C[C@H](O)[C@@]1(C)C(=O)[C@H](O)C3=C(C)[C@@H](OC(=O)[C@H](O)[C@@H](NC(=O)OC(C)(C)C)c4ccccc4)C[C@@](O)([C@@H](OC(=O)c4ccccc4)[C@H]21)C3(C)C [Taxotere]
solubility in water of Taxotere, raised by encapsulation ([1]; encapsulated in 6^I -S-α-maltosyl-6^I -thiocyclo-maltaheptaose (WO-A-95/19994)): 6500 µg/mL
solubility in water of Taxotere ([1]; without cyclodextrin): 4 µg/mL

solubility [2]: 775000 µg/mL and 640000 µM
Structure (SMILES): CNC(=S)NC[C@H]1O[C@@H]2O[C@H]3[C@H](O)[C@@H](O)[C@@H](O[C@H]4[C@H](O)[C@@H](O)[C@@H](O[C@H]5[C@H](O)[C@@H](O)[C@@H](O[C@H]6[C@H](O)[C@@H](O)[C@@H](O[C@H]7[C@H](O)[C@@H](O)[C@@H](O[C@H]8[C@H](O)[C@@H](O)[C@@H](O[C@H]1[C@H](O)[C@H]2O)O[C@@H]8CO)O[C@@H]7CO)O[C@@H]6CO)O[C@@H]5CO)O[C@@H]4CO)O[C@@H]3CO [compound n°1, 6^I -desoxy-6^I -(N'-methylthioureido) cyclomaltoheptaose]

solubility in water [2]: 558 g/l and 373 mM
Structure (SMILES): CO[C@H]1O[C@H](CNC(=S)NC[C@H]2O[C@@H]3O[C@H]4[C@H](O)[C@@H](O)[C@@H](O[C@H]5[C@H](O)[C@@H](O)[C@@H](O[C@H]6[C@H](O)[C@@H](O)[C@@H](O[C@H]7[C@H](O)[C@@H](O)[C@@H](O[C@H]8[C@H](O)[C@@H](O)[C@@H](O[C@H]9[C@H](O)[C@@H](O)[C@@H](O[C@H]2[C@H](O)[C@H]3O)O[C@@H]9CO)O[C@@H]8CO)O[C@@H]7CO)O[C@@H]6CO)O[C@@H]5CO)O[C@@H]4CO)[C@@H](OC(C)=O)[C@H](OC(C)=O)[C@H]1OC(C)=O [compound n°3]

solubility [2]: 710000 µg/mL and 518000 µM
Structure (SMILES): CO[C@H]1O[C@H](CNC(=S)NC[C@H]2O[C@@H]3O[C@H]4[C@H](O)[C@@H](O)[C@@H](O[C@H]5[C@H](O)[C@@H](O)[C@@H](O[C@H]6[C@H](O)[C@@H](O)[C@@H](O[C@H]7[C@H](O)[C@@H](O)[C@@H](O[C@H]8[C@H](O)[C@@H](O)[C@@H](O[C@H]9[C@H](O)[C@@H](O)[C@@H](O[C@H]2[C@H](O)[C@H]3O)O[C@@H]9CO)O[C@@H]8CO)O[C@@H]7CO)O[C@@H]6CO)O[C@@H]5CO)O[C@@H]4CO)[C@@H](O)[C@H](O)[C@H]1O [compound n°2]
